Source: ChEMBL document CHEMBL1201862, “PubChem BioAssay data set” (2004)
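Five concentrations, 48 hours, 96-well plates. Here, GI50 denotes the concentration required for 50% inhibition of growth.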 Active and inactive are the calls of the source. Rule as the data show it: active = GI50 up to about 1.1 µM and inactive = higher.

Assays:
Experiment in all cases: NCI anticancer screen, dose series, 48 h
[1] = tested on: UACC-257
[2] = tested on: HOP-92
[3] = tested on: CCRF-CEM
[4] = tested on: LOX IMVI
[5] = tested on: HOP-62
[6] = tested on: SK-MEL-28
[7] = tested on: NCI-H522
[8] = tested on: SF-295
[9] = tested on: SNB-19
[10] = tested on: Hs-578T
[11] = tested on: TK-10
[12] = tested on: UACC-62
[13] = tested on: RXF 393
[14] = tested on: Malme-3M
[15] = tested on: HCT-15
[16] = tested on: SN12C
[17] = tested on: M14
[18] = tested on: 786-0
[19] = tested on: SK-OV-3
[20] = tested on: OVCAR-8
[21] = tested on: DU-145
[22] = tested on: ACHN
[23] = tested on: SNB-75
[24] = tested on: MDA-MB-435
[25] = tested on: KM12
[26] = tested on: SF-268
[27] = tested on: NCI-H23
[28] = tested on: U-251
[29] = tested on: SR
[30] = tested on: NCI-H460
[31] = tested on: UO-31
[32] = tested on: CAKI-1
[33] = tested on: K562
[34] = tested on: HCT-116
[35] = tested on: HT-29
[36] = tested on: MOLT-4
[37] = tested on: OVCAR-4
[38] = tested on: NCI/ADR-RES
[39] = tested on: PC-3
[40] = tested on: COLO 205
[41] = tested on: A498
[42] = tested on: MDA-MB-231
[43] = tested on: SK-MEL-5
[44] = tested on: SF-539
[45] = tested on: EKVX
[46] = tested on: A549
[47] = tested on: HL-60
[48] = tested on: OVCAR-3
[49] = tested on: BT-549
[50] = tested on: OVCAR-5
[51] = tested on: IGROV-1
[52] = tested on: MCF7
[53] = tested on: MDA-N
[54] = tested on: T47D
[55] = tested on: SK-MEL-2
[56] = tested on: SW-620
[57] = tested on: RPMI-8226
[58] = tested on: HCC 2998
[59] = tested on: NCI-H226

`O=C(CCc1ccc(O)cc1)NCCc1cccc(O)c1` was tested, and the GI50 [1] was > 50 µM (inactive), the GI50 [2] was > 50 µM (inactive) and the GI50 [3] was > 50 µM (inactive). The GI50 [4] was > 50 µM (inactive), the GI50 [5] was > 50 µM (inactive) and the GI50 [6] was > 50 µM (inactive). The GI50 [7] was 20.2 µM (inactive), the GI50 [8] was > 50 µM (inactive) and the GI50 [9] was > 50 µM (inactive). The GI50 [10] was > 50 µM (inactive), the GI50 [11] was > 50 µM (inactive) and the GI50 [12] was > 50 µM (inactive). The GI50 [13] was > 50 µM (inactive), the GI50 [14] was > 50 µM (inactive) and the GI50 [15] was over 50 µM. For the same compound, the GI50 [16] was > 50 µM (inactive), the GI50 [17] was > 50 µM (inactive) and the GI50 [18] was > 50 µM (inactive). The GI50 [19] was > 50 µM (inactive), the GI50 [20] was > 50 µM (inactive) and the GI50 [21] was > 50 µM (inactive). The GI50 [22] was > 50 µM (inactive), the GI50 [23] was 0.005 µM (active) and the GI50 [24] was > 50 µM (inactive). For the same compound, the GI50 [25] was > 50 µM (inactive), the GI50 [26] was > 50 µM (inactive) and the GI50 [27] was > 50 µM (inactive). For the same compound, the GI50 [28] was > 50 µM (inactive), the GI50 [29] was > 50 µM (inactive) and the GI50 [30] was > 50 µM (inactive). The GI50 [31] was > 50 µM (inactive), the GI50 [32] was > 50 µM (inactive) and the GI50 [33] was > 50 µM (inactive). For the same compound, the GI50 [34] was > 50 µM (inactive), the GI50 [35] was > 50 µM (inactive) and the GI50 [36] was > 50 µM (inactive). The GI50 [37] was > 50 µM (inactive), the GI50 [38] was > 50 µM (inactive) and the GI50 [39] was > 50 µM (inactive). For the same compound, the GI50 [40] was > 50 µM (inactive), the GI50 [41] was > 50 µM (inactive) and the GI50 [42] was > 50 µM (inactive). The GI50 [43] was > 50 µM (inactive), the GI50 [44] was > 50 µM (inactive) and the GI50 [45] was > 50 µM (inactive). For the same compound, the GI50 [46] was > 50 µM (inactive), the GI50 [47] was > 50 µM (inactive) and the GI50 [48] was > 50 µM (inactive). The GI50 [49] was > 50 µM (inactive), the GI50 [50] was > 50 µM (inactive) and the GI50 [51] was > 50 µM (inactive). For the same compound, the GI50 [52] was > 50 µM (inactive), the GI50 [53] was > 50 µM (inactive) and the GI50 [54] was > 50 µM (inactive). For the same compound, the GI50 [55] was > 50 µM (inactive).
For `COc1ccc(/C=C2\N=C(N3CCOCC3)NC2=O)cc1`, the GI50 [1] was > 100 µM (inactive), the GI50 [56] was > 100 µM (inactive) and the GI50 [2] was > 100 µM (inactive). The GI50 [3] was > 100 µM (inactive), the GI50 [4] was > 100 µM (inactive) and the GI50 [57] was > 100 µM (inactive). For the same compound, the GI50 [5] was > 100 µM (inactive), the GI50 [6] was > 100 µM (inactive) and the GI50 [7] was > 100 µM (inactive). For the same compound, the GI50 [8] was > 100 µM (inactive), the GI50 [9] was > 100 µM (inactive) and the GI50 [10] was > 100 µM (inactive). The GI50 [11] was > 100 µM (inactive), the GI50 [12] was > 100 µM (inactive) and the GI50 [13] was > 100 µM (inactive). For the same compound, the GI50 [14] was > 100 µM (inactive), the GI50 [15] was over 100 µM and the GI50 [16] was > 100 µM (inactive). The GI50 [17] was > 100 µM (inactive), the GI50 [18] was > 100 µM (inactive) and the GI50 [19] was > 100 µM (inactive). For the same compound, the GI50 [20] was > 100 µM (inactive), the GI50 [21] was > 100 µM (inactive) and the GI50 [22] was > 100 µM (inactive). The GI50 [23] was 58.3 µM (inactive), the GI50 [24] was > 100 µM (inactive) and the GI50 [25] was > 100 µM (inactive). For the same compound, the GI50 [26] was > 100 µM (inactive), the GI50 [27] was > 100 µM (inactive) and the GI50 [28] was > 100 µM (inactive). For the same compound, the GI50 [29] was > 100 µM (inactive), the GI50 [31] was > 100 µM (inactive) and the GI50 [32] was > 100 µM (inactive). The GI50 [58] was > 100 µM (inactive), the GI50 [34] was > 100 µM (inactive) and the GI50 [35] was > 100 µM (inactive). The GI50 [36] was > 100 µM (inactive), the GI50 [37] was > 100 µM (inactive) and the GI50 [38] was > 100 µM (inactive). For the same compound, the GI50 [39] was > 100 µM (inactive), the GI50 [40] was > 100 µM (inactive) and the GI50 [42] was > 100 µM (inactive). For the same compound, the GI50 [44] was > 100 µM (inactive), the GI50 [45] was > 100 µM (inactive) and the GI50 [46] was > 100 µM (inactive). The GI50 [47] was > 100 µM (inactive), the GI50 [59] was > 100 µM (inactive) and the GI50 [48] was > 100 µM (inactive). For the same compound, the GI50 [49] was > 100 µM (inactive), the GI50 [50] was > 100 µM (inactive) and the GI50 [51] was > 100 µM (inactive). The GI50 [52] was > 100 µM (inactive), the GI50 [53] was > 100 µM (inactive) and the GI50 [54] was > 100 µM (inactive). For the same compound, the GI50 [55] was > 100 µM (inactive).
For `c1ccc(CN2CCC(=NN3CCCCC3)CC2)cc1`, the GI50 [1] was 47.1 µM (inactive), the GI50 [56] was > 100 µM (inactive) and the GI50 [2] was 16.2 µM (inactive). For the same compound, the GI50 [3] was 31.8 µM (inactive), the GI50 [4] was 70.6 µM (inactive) and the GI50 [57] was 27.7 µM (inactive). The GI50 [5] was > 100 µM (inactive), the GI50 [6] was > 100 µM (inactive) and the GI50 [7] was 54.6 µM (inactive). For the same compound, the GI50 [8] was > 100 µM (inactive), the GI50 [9] was > 100 µM (inactive) and the GI50 [10] was 35 µM (inactive). For the same compound, the GI50 [11] was 86.7 µM (inactive), the GI50 [12] was > 100 µM (inactive) and the GI50 [13] was 35.1 µM (inactive). The GI50 [14] was > 100 µM (inactive), the GI50 [15] was over 100 µM and the GI50 [16] was > 100 µM (inactive). For the same compound, the GI50 [17] was > 100 µM (inactive), the GI50 [18] was > 100 µM (inactive) and the GI50 [19] was > 100 µM (inactive). The GI50 [20] was 65.2 µM (inactive), the GI50 [21] was > 100 µM (inactive) and the GI50 [22] was > 100 µM (inactive). The GI50 [23] was 61.2 µM (inactive), the GI50 [24] was 72.8 µM (inactive) and the GI50 [25] was 78.3 µM (inactive). The GI50 [26] was 88.1 µM (inactive), the GI50 [27] was 78.2 µM (inactive) and the GI50 [28] was 59.6 µM (inactive). For the same compound, the GI50 [29] was 34.4 µM (inactive), the GI50 [30] was 46.6 µM (inactive) and the GI50 [31] was 64.7 µM (inactive). The GI50 [32] was > 100 µM (inactive), the GI50 [33] was 31.1 µM (inactive) and the GI50 [58] was 51.1 µM (inactive). For the same compound, the GI50 [34] was 64.1 µM (inactive), the GI50 [35] was 32.4 µM (inactive) and the GI50 [36] was 39.4 µM (inactive). For the same compound, the GI50 [37] was > 100 µM (inactive), the GI50 [38] was > 100 µM (inactive) and the GI50 [39] was 54.8 µM (inactive). The GI50 [40] was 28.1 µM (inactive), the GI50 [42] was 43.3 µM (inactive) and the GI50 [43] was 30.3 µM (inactive). For the same compound, the GI50 [44] was > 100 µM (inactive), the GI50 [45] was > 100 µM (inactive) and the GI50 [46] was > 100 µM (inactive). For the same compound, the GI50 [47] was 20.1 µM (inactive), the GI50 [59] was > 100 µM (inactive) and the GI50 [48] was 44.2 µM (inactive). For the same compound, the GI50 [49] was 43.5 µM (inactive), the GI50 [50] was > 100 µM (inactive) and the GI50 [51] was > 100 µM (inactive). For the same compound, the GI50 [52] was 43.3 µM (inactive), the GI50 [53] was 83 µM (inactive) and the GI50 [54] was 37.1 µM (inactive). The GI50 [55] was > 100 µM (inactive).
